In ChEMBL document CHEMBL3507680, “University of Dundee, Gates Library screen for HepG2 cell viability”:

Experiment: Human HepG2 cell viability assay in 384 well format
Type: toxicity, cell-based
Design: dose 125 nL, time 70.5 hour; concentration not given beside the values
Settings: HepG2 cells, read-out: Inhibition

SMILES: Cc1cc(C)c(CNC(=O)NCCNc2ncccn2)c(=O)[nH]1
- cytotoxicity at 70.5 h: -12.7%

SMILES: CC(CC(=O)N1CCN(c2cnccn2)CC1)c1ccc(F)cc1 (centres undefined)
- cytotoxicity at 70.5 h: 0.499%

SMILES: Cc1nc2c(C#N)cnn2c(C)c1CCC(=O)N(C)C(C)C(C)C (centres undefined)
- cytotoxicity at 70.5 h: -11.8%

SMILES: Cc1cc(C)c(CNC(=O)NCCNc2cnccn2)c(=O)[nH]1
- cytotoxicity at 70.5 h: -4.64%

SMILES: CCC(C#N)NC(=O)CCCOc1cccc(C(C)=O)c1 (centres undefined)
- cytotoxicity at 70.5 h: -11.3%

SMILES: O=C(NCc1nc(C2CC2)no1)N1CCOC(c2ccccc2F)C1 (centres undefined)
- cytotoxicity at 70.5 h: -3.4%

SMILES: CCN(C)S(=O)(=O)c1ccc(Cl)cc1C#N
- cytotoxicity at 70.5 h: -7.9%

SMILES: CCc1csc(C2CCCN(C(=O)c3ccc(=O)n(C)n3)C2)n1 (centres undefined)
- cytotoxicity at 70.5 h: -11.3%

SMILES: CC(C)c1csc(C2CCCN(C(=O)c3ccc[nH]3)C2)n1 (centres undefined)
- cytotoxicity at 70.5 h: -4.24%

SMILES: Cn1cccc(NC(=O)NCCOCc2ccccc2)c1=O
- cytotoxicity at 70.5 h: -13.2%

SMILES: CCS(=O)(=O)N1CCc2c(cccc2NCc2ncc[nH]2)C1
- cytotoxicity at 70.5 h: -10%

SMILES: CC(C)SCc1cccc(NC(=O)NC(C)c2nc[nH]n2)c1 (centres undefined)
- cytotoxicity at 70.5 h: -7.97%

SMILES: O=C(NCc1nc(C2CC2)no1)N1CCOC(c2cccc(F)c2)C1 (centres undefined)
- cytotoxicity at 70.5 h: 0.958%

SMILES: CC(C)c1csc(C2CCCN(C(=O)c3ccc(=O)n(C)c3)C2)n1 (centres undefined)
- cytotoxicity at 70.5 h: -0.564%

SMILES: COCCOc1ncccc1C(=O)N(C)c1ccc(OC)c(OC)c1
- cytotoxicity at 70.5 h: -11.7%

SMILES: CCN(Cc1cccs1)S(=O)(=O)N(C)C(C)C
- cytotoxicity at 70.5 h: -18.1%

SMILES: Cc1ncccc1C(=O)NC1CC(=O)N(CC(F)(F)F)C1 (centres undefined)
- cytotoxicity at 70.5 h: -0.154%

SMILES: O=C(O)c1csc(S(=O)(=O)N2CCN(Cc3ccc(Cl)cc3)CC2)c1
- cytotoxicity at 70.5 h: -12.5%

SMILES: O=C(O)c1csc(S(=O)(=O)N2CCN(Cc3c(F)cccc3Cl)CC2)c1
- cytotoxicity at 70.5 h: -31.1%

SMILES: COC(=O)c1ccc(F)c(S(=O)(=O)Nc2ccc(C(N)=O)cc2)c1
- cytotoxicity at 70.5 h: -16.7%

SMILES: COC(=O)c1cccc(S(=O)(=O)Nc2ccc(Cl)c(C(N)=O)c2)c1
- cytotoxicity at 70.5 h: -12.3%

SMILES: O=C(NCCOc1ccc(F)cc1)C1CCCN(C(=O)C2CC2)C1 (centres undefined)
- cytotoxicity at 70.5 h: -17.7%

SMILES: CCC(CC)C(=O)NS(=O)(=O)CCc1ccccc1
- cytotoxicity at 70.5 h: -23.7%

SMILES: CC(C)c1nnc(CN2CCCC2C(=O)OCc2ccccc2)o1 (centres undefined)
- cytotoxicity at 70.5 h: -10.4%

SMILES: NC(=O)N1CCCC(C(=O)NCCOc2ccc(F)c(F)c2)C1 (centres undefined)
- cytotoxicity at 70.5 h: -12.7%

SMILES: Cc1ccoc1CNC(C)c1nnc2n1CCCC2 (centres undefined)
- cytotoxicity at 70.5 h: 13%

SMILES: Cc1ccc(CNC(C)c2nnc3n2CCCC3)o1 (centres undefined)
- cytotoxicity at 70.5 h: -8.48%

SMILES: COCCS(=O)(=O)NC(=O)c1nnn(-c2ccc(F)cc2)c1C1CC1
- cytotoxicity at 70.5 h: 2%

SMILES: CS(=O)(=O)c1ccc(NC(=O)CSc2ccc3c(c2)CCC3)cc1
- cytotoxicity at 70.5 h: 1.38%

SMILES: CCN1CCCC(CNC(=O)CCc2ccc(OC)c(F)c2)C1 (centres undefined)
- cytotoxicity at 70.5 h: -14.6%

SMILES: CNC(=O)C(NC(=O)c1c(C)noc1C)c1ccc(F)c(F)c1 (centres undefined)
- cytotoxicity at 70.5 h: 2.39%

SMILES: CCOc1c(OC)cc(/C=C/c2ncc(C(=O)NC)s2)cc1OC
- cytotoxicity at 70.5 h: -7.3%

SMILES: CN(C)C(=O)C1CCN(c2cncc(-n3cccn3)n2)CC1
- cytotoxicity at 70.5 h: 10.2%

SMILES: CNC(=O)c1cnc(/C=C/c2cc(OC)c3c(c2)OCCO3)s1
- cytotoxicity at 70.5 h: -6.59%

SMILES: CN(CC(=O)Nc1ccncc1)CC1CCCN1c1cccnn1 (centres undefined)
- cytotoxicity at 70.5 h: -11.4%

SMILES: CNS(=O)(=O)c1cccc(C(C)NCc2ccncc2)c1 (centres undefined)
- cytotoxicity at 70.5 h: -2.51%

SMILES: COCc1nc2cc(NCc3sc(C)nc3C)ccc2o1
- cytotoxicity at 70.5 h: -4.53%

SMILES: CNC(=O)C(NC(C)=O)c1ccc(F)c(F)c1 (centres undefined)
- cytotoxicity at 70.5 h: -1.65%

SMILES: O=C(C1SCCc2sccc21)N1CCCCC1 (centres undefined)
- cytotoxicity at 70.5 h: -6.95%

SMILES: O=C(C1SCCc2sccc21)N1CC(O)C1 (centres undefined)
- cytotoxicity at 70.5 h: -5.69%

SMILES: O=C(NCC1(C(=O)O)CCC1)c1nnn(-c2ccc(F)cc2)c1C1CC1
- cytotoxicity at 70.5 h: 11.7%

SMILES: CNS(=O)(=O)c1cccc(C(C)NCc2ccsc2)c1 (centres undefined)
- cytotoxicity at 70.5 h: -0.542%

SMILES: Cc1ccc(C(CNCc2nccn2C)N2CCOCC2)s1 (centres undefined)
- cytotoxicity at 70.5 h: -2.09%

SMILES: CCn1ccnc1CNCC(c1ccc(C)s1)N1CCOCC1 (centres undefined)
- cytotoxicity at 70.5 h: -7.92%

SMILES: CNS(=O)(=O)c1cccc(C(C)NCc2ccc(F)cc2F)c1 (centres undefined)
- cytotoxicity at 70.5 h: -9.82%

SMILES: CN(C(=O)CN1CCCC1Cc1ccccc1)c1ccccc1 (centres undefined)
- cytotoxicity at 70.5 h: -7.08%

SMILES: CCCC(C)C(=O)Nc1ccc(OC)nc1N1CCN(C(C)=O)CC1 (centres undefined)
- cytotoxicity at 70.5 h: -6.89%

SMILES: OC(CN1CC(n2cccn2)C1)c1ccc2c(c1)OCCO2 (centres undefined)
- cytotoxicity at 70.5 h: -3.2%

SMILES: Cc1ccoc1CNCc1nnc2n1CCCC2C(F)(F)F (centres undefined)
- cytotoxicity at 70.5 h: -3.7%

SMILES: O=C(CCn1cccn1)NCC(c1cccs1)N1CCCC1 (centres undefined)
- cytotoxicity at 70.5 h: -5.3%

SMILES: CC1CCN(C(CNC(=O)Cn2cccn2)c2cccs2)CC1 (centres undefined)
- cytotoxicity at 70.5 h: -7.96%

SMILES: NS(=O)(=O)CCNC(=O)c1cc(Br)c2c(c1)OCCO2
- cytotoxicity at 70.5 h: -10.7%

SMILES: NC(=O)CCCNC(=O)c1cc(Br)c2c(c1)OCCO2
- cytotoxicity at 70.5 h: -10.4%

SMILES: CC(CC(=O)Nc1ncn(CC(=O)NCc2ccccc2)n1)C1CC1 (centres undefined)
- cytotoxicity at 70.5 h: -14.7%

SMILES: COC(=O)CCNC(=O)c1cc(Br)c2c(c1)OCCO2
- cytotoxicity at 70.5 h: -10.5%

SMILES: Cc1cnn(Cc2cc(F)ccc2F)c1NC(=O)CNC(=O)C1CC1
- cytotoxicity at 70.5 h: 1.15%

SMILES: CCN(CC)C(=O)CCCNC(=O)Cc1nc(-c2ccco2)oc1C
- cytotoxicity at 70.5 h: -12.3%

SMILES: CCOCCCNC(=O)c1cc(Br)c2c(c1)OCCO2
- cytotoxicity at 70.5 h: -8.79%

SMILES: CCC(=O)NCC(=O)Nc1c(C)cnn1Cc1cc(F)ccc1F
- cytotoxicity at 70.5 h: -5.16%

SMILES: CC(=O)Cn1cc(C#N)c(=O)c2cc(Br)ccc21
- cytotoxicity at 70.5 h: -13.6%

SMILES: N#CCCCn1nnc(C2(NC(=O)c3ccccc3)CCCC2)n1
- cytotoxicity at 70.5 h: -1.12%

SMILES: CCc1nc2n(n1)CCCC2Nc1nc(C(C)C)ns1 (centres undefined)
- cytotoxicity at 70.5 h: -9.57%

SMILES: COCc1nc2n(n1)CCCC2Nc1nc(C)ns1 (centres undefined)
- cytotoxicity at 70.5 h: 24.4%

SMILES: CC(C)CS(=O)(=O)CC(=O)N1CCCC1c1noc(C2CC2)n1 (centres undefined)
- cytotoxicity at 70.5 h: -8.35%

SMILES: COc1cccc(CN(C)C(=O)CN2CCN(c3nccs3)CC2)c1
- cytotoxicity at 70.5 h: -9.6%

SMILES: O=C(CN1CCOC(c2ccc(Cl)s2)C1)NCc1ccco1 (centres undefined)
- cytotoxicity at 70.5 h: 17%

SMILES: COc1ccc(C(O)CN2CC(n3cc(C)cn3)C2)cc1 (centres undefined)
- cytotoxicity at 70.5 h: -8.25%

SMILES: Cc1cc(C2CN(CC(=O)NCc3ccco3)CCO2)ccc1F (centres undefined)
- cytotoxicity at 70.5 h: -11.9%

SMILES: O=c1oc(-c2cccs2)nn1CC(O)c1ccc2c(c1)CCC2 (centres undefined)
- cytotoxicity at 70.5 h: 14.5%

SMILES: CCc1sc(C(=O)NC2CC2)cc1C
- cytotoxicity at 70.5 h: 8.53%

SMILES: CCCS(=O)(=O)N1CCC(NC(=O)c2cc(CC)c(C)s2)CC1
- cytotoxicity at 70.5 h: -0.636%

SMILES: CC(=O)NCCC(=O)NCc1cc(Br)ccc1OC(F)F
- cytotoxicity at 70.5 h: -7.14%

SMILES: NC(=O)C1CCCN1Cc1cccc(NC(=O)c2ccc(Cl)cc2F)c1 (centres undefined)
- cytotoxicity at 70.5 h: -20.5%

SMILES: COC(=O)CCSc1nncn1-c1ccc(OC)nc1
- cytotoxicity at 70.5 h: 4.09%

SMILES: CCc1nc(CCNC(=O)Nc2cccc(C(=O)NC)c2C)cs1
- cytotoxicity at 70.5 h: 9.84%

SMILES: Cc1cccc(NC(=O)[C@@H]2CCCN2Cc2ccccc2C#N)n1
- cytotoxicity at 70.5 h: -10.3%

SMILES: CSCC(=O)NCc1cc(Br)ccc1OC(F)F
- cytotoxicity at 70.5 h: -5.17%

SMILES: CC(C)C(=O)NC1CCN(c2cccc(OC(F)(F)F)c2)C1=O (centres undefined)
- cytotoxicity at 70.5 h: 8.86%

SMILES: Cc1cc(S(=O)(=O)N2CCCc3cc(Br)ccc32)sc1C(=O)O
- cytotoxicity at 70.5 h: -6.91%

SMILES: CCC(CC)NC(=O)CN1CCN(C(=O)N(C)C)CC1
- cytotoxicity at 70.5 h: -0.0942%

SMILES: CC(NC(=O)C1CCN(S(N)(=O)=O)CC1)c1cccc(OC(F)F)c1 (centres undefined)
- cytotoxicity at 70.5 h: -1.7%

SMILES: Cc1ccc(C(=O)N(C)Cc2c(C)noc2C)c(=O)[nH]1
- cytotoxicity at 70.5 h: -0.278%

SMILES: COc1ccc(CNC(C)c2ccccc2Cl)c(OC)c1OC (centres undefined)
- cytotoxicity at 70.5 h: 18.3%

SMILES: Cc1cccc(NC(=O)C2CCc3ccccc3N2)c1 (centres undefined)
- cytotoxicity at 70.5 h: -0.623%
